Experimental data: PubChem BioAssay AID624456 (Sanford-Burnham Center for Chemical Genomics, 2012)

Tested on: compound stability in 1x PBS, percent remaining
Experiment: compound stability in phosphate-buffered saline, ADME assay, biochemical, 1x PBS, with and without 50% ACN, set 2 (AID 624456);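 note: percent left after two days of incubation at room temperature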
[1] = measured here: stability in PBS with 50% ACN

Row | SMILES | stability | stability [1]
1 | CCCn1ncc(CN2CCCC(C(=O)c3cccc(OC(C)C)c3)C2)c1C (stereo not given) | 100% | 100%
2 | N#C/C(=C\c1ccc([N+](=O)[O-])o1)c1nc2ccccc2[nH]1 | 52.4% | 100%
3 | COc1ccc(S(=O)(=O)n2nc(OC(=O)c3ccccc3)cc2N)cc1 | 11.1% | 91.8%
4 | COc1nc(-c2ccccc2)nnc1-c1ccccc1 | 10.1% | 98.9%
5 | O=C(CCNS(=O)(=O)c1cccc2nsnc12)N1CCN(c2ccccn2)CC1 | 91.6% | 100%
6 | O=S(=O)(NC1CCCCC1N1CCOCC1)c1ccc(Cl)cc1 (stereo not given) | 75% | 89.4%
7 | O=C(COc1ccccc1Br)NCCc1nc2ccccc2[nH]1 | 92.1% | 100%
8 | CN(C)c1nc(N)nc(CSc2nnnn2-c2cccc3ccccc23)n1 | 75.8% | 94.6%
9 | Cc1ccc(C)c(OCCn2cc(C(=O)O)c3ccccc32)c1 | 90.3% | 100%
10 | COc1ccc(CSc2nc(C)cc(=O)[nH]2)cc1 | 88.5% | 99.8%
11 | Brc1cc2c(cc1C1Nc3ccccc3C3C=CCC31)OCO2 (stereo not given) | 0.38% | 68.9%
12 | C=CCn1c(SCC(=O)c2ccc(O)c(O)c2)nnc1-c1ccccc1OC | 82.6% | 100%
13 | Cn1nnnc1Sc1ncnc2scc(-c3ccccc3)c12 | 85% | 95.1%
14 | NC(=O)C1CCN(c2nc(-c3ccc(Br)cc3)cs2)CC1 | 70.8% | 100%
15 | Cc1cc(-c2nnc3n2CCCCC3)c(C)n1-c1ccccc1 | 100% | 100%
16 | COc1cccc(-c2nc(-c3ccc(NC(=O)Cc4ccccc4OC)cc3)no2)c1 | 81.5% | 90.4%
17 | CCCc1cc(C(=O)N(C2CCCCC2)C2CCCCC2)no1 | 6.53% | 76.7%
18 | CC[C@H]1CN2CCc3cc(OC)c(OC)cc3[C@@H]2C[C@@H]1C[C@H]1NCCc2cc(OC)c(OC)cc21 | 23.6% | 90%
19 | Cc1ccc(NS(=O)(=O)c2ccc3c(c2)CCC(=O)N3)cc1C | 68.5% | 100%
20 | COc1ccc(C2CC(c3ccccc3)=NN2c2ccc(S(N)(=O)=O)cc2)cc1 (stereo not given) | 58.2% | 90.9%
21 | Brc1ccc2c(c1)CN1CCCC1=N2 | 92.9% | 93.4%
22 | COc1ccc(OC)c(S(=O)(=O)Nc2cnc3ccccc3c2)c1 | 89.6% | 93%
23 | CCOC(=O)C(C)Oc1cccc2c(=O)n(CC(=O)Nc3ccc4c(c3)OCCO4)ccc12 (stereo not given) | 56.1% | 94.6%
24 | N#Cc1ccccc1CSc1nc2ncc(Br)cc2[nH]1 | 60.5% | 55.9%
25 | O=C1C2CC=CCC2C(=O)N1c1n[nH]c(-c2ccccc2)n1 (stereo not given) | 50.8% | 100%
26 | c1ccc(CC2CCN(c3ncnc4sccc34)CC2)cc1 | 6.42% | 93.2%

Row | SMILES | stability | stability [1]
27 | O=C(CSc1cccc2cccnc12)N1CCCC1 | 100% | 100%
28 | O=c1[nH]c2c(s1)C(c1cccnc1)C1C3CCC(C3)C1S2 (stereo not given) | 55% | 66.5%
29 | O=C(O)c1ccc(N2C(=O)/C(=C/c3ccc(-c4ccc([N+](=O)[O-])cc4)o3)C=C2c2ccccc2)cc1 | 14.5% | 62.9%
30 | C/C=C/Cn1c(SCCCc2ccccc2)nc2c1c(=O)[nH]c(=O)n2C | 73.4% | 100%
31 | COc1ccc(N(C(=O)CCl)C(C(=O)NCCc2ccccc2)c2cccs2)cc1Cl (stereo not given) | 71.8% | 100%
32 | Cc1ccc(S(=O)(=O)n2c(N)nc3ccccc32)cc1 | 97.8% | 98.8%
33 | O=C(c1ccccn1)N(Cc1cccs1)C1(C(=O)NC2CCCCC2)CCCCC1 | 93.9% | 97.5%
34 | CCc1oc2ccccc2c1C(=O)c1cc(Br)c(O)c(Br)c1 | 100% | 100%
35 | Cc1ccc(N2CCN(S(=O)(=O)N3CCCCC3)CC2)c(C)c1 | 15.1% | 96.7%
36 | COC(=O)c1ccccc1NC(=O)c1ccc(F)cc1 | 11.2% | 93.4%
37 | O=C1NCCCc2c1oc1ccc(O)cc21 | 100% | 100%
38 | Cc1cc(C(=O)CN2C(=O)CCC2=O)c(C)n1Cc1ccccc1 | 73% | 85.4%
39 | O=C1CCCC2=C1C1(CCCC1)N=C(Nc1nc3ccccc3o1)N2 | 21.9% | 90.2%
40 | CSc1nc(-c2ccc(C)cc2)nc(C(Cl)Cl)n1 | 0.45% | 96.5%
41 | Cn1cnc([N+](=O)[O-])c1Sc1ncnc2nc[nH]c12 | 31.9% | –
42 | Cc1ccc(-n2c(N)c(C#N)c(-c3ccccc3)c(C#N)c2=O)cc1 | 81.4% | 98.2%
43 | Cc1ccc(NC(=O)CCC(=O)N/N=C/c2ccc([N+](=O)[O-])o2)cc1C | 51.3% | 65.6%
44 | CCCN(CCC)CCNC(=O)C1CCN(Cc2nc(-c3ccc(Cl)cc3)oc2C)CC1 | 99.4% | 100%
45 | CN(C)c1oc(-c2ccc(OCc3ccc(Cl)cc3)cc2)nc1C#N | 9.08% | 100%
46 | O=S1(=O)Nc2c(ccc3cccnc23)-c2ccccc21 | 91.3% | 94.9%
47 | CCOc1ccc(-c2nc(-c3ccncc3)no2)cc1OCC | 59.9% | 100%
48 | Cc1ccc(S(=O)(=O)C(c2ccccc2)c2c(C)noc2C)cc1 (stereo not given) | 83.8% | 99.3%
49 | COc1ccc(C2c3c(ncn(CCN4CCOCC4)c3=N)Oc3ccc4ccccc4c32)cc1OC (stereo not given) | 76.7% | 85.6%
50 | c1ccc2c(Nc3nnc(-c4ccncc4)s3)cccc2c1 | 84.2% | 100%
51 | CCCc1nc2c(=O)n(C)c(=O)nc-2n(C)n1 | 100% | 100%
52 | O=c1[nH]c(SCc2ccc(Cl)cc2)nc2c1CCC2 | 98.3% | 100%

Row | SMILES | stability | stability [1]
53 | Cc1ccc(C(=O)n2c3ccccc3c3ccccc32)cc1 | 77.2% | 74.6%
54 | CS(=O)(=O)c1ccc(C(=O)OCC(=O)NC23CC4CC(CC(C4)C2)C3)cc1[N+](=O)[O-] | 12.8% | 100%
55 | CCN1CCN(c2nc3ccccc3nc2C(C#N)C(=O)OC2CCCCC2)CC1 (stereo not given) | 33.4% | 80.1%
56 | CC(=O)c1ccc(N2CCN(S(=O)(=O)c3ccc4c(c3)CC(=O)N4)CC2)cc1 | 95.7% | 100%
57 | CCCN1CNc2c(c(=O)[nH]c(=S)n2CCc2ccc(OC)c(OC)c2)C1 | 78.5% | 100%
58 | COc1ccc(S(=O)(=O)N2CCN(S(=O)(=O)c3ccc4c(c3)OCCO4)CC2)cc1 | 72.3% | 80.8%
59 | O=C(O)c1cccnc1SCCc1ccccc1 | 96.5% | 100%
60 | CCc1nnc(NC(=O)c2ccc(NS(=O)(=O)c3ccccc3)cc2)s1 | 86% | 95.2%
61 | COc1ccc(OC)c(-c2nnc3n2N=C(c2ccc(OC)c(OC)c2)CS3)c1 | 89.6% | 99.6%
62 | COc1ccccc1N(/N=C1\Sc2ccccc2C1=O)C(C)=O | 81.6% | 88.1%
63 | CC1CCCN(C(C(=O)Nc2ccc3c(c2)OCCO3)c2ccccc2)C1 (stereo not given) | 100% | 100%
64 | CCCC(=O)Nc1cccc(NC(=O)c2ccccc2Br)c1 | 79.5% | 86.7%
65 | CC(C)C(=O)NC(c1ccco1)c1ccc2cccnc2c1O (stereo not given) | 92.9% | 100%
66 | c1ccc(-c2nnc(N3CCOCC3)nc2-c2ccccc2)cc1 | 57.4% | 100%
67 | O=[N+]([O-])c1ccc(CN2CCOCCOCCN(Cc3ccc([N+](=O)[O-])cc3)CCOCC2)cc1 | 96.1% | 100%
68 | COc1ccc(CNCc2cccc3ccccc23)cc1 | 50.6% | 100%
69 | Cc1cc(C)nc(-n2nc(C)c(Sc3ccc(F)cc3)c2N)n1 | 56% | 100%
70 | Cc1nc(SCc2nc3ccccc3[nH]2)c2oc3ccccc3c2n1 | 74.2% | 84.7%
71 | Cc1ccc(C)c(NS(=O)(=O)c2cc(C(=O)Nc3ccccc3-c3ccccc3)ccc2Cl)c1 | 34.6% | 98%
72 | Cc1cc2c(s1)c1cnn(Cc3ccccc3F)c(=O)c1n2C | 20.4% | 86.7%
73 | O=C(O)CCC(NS(=O)(=O)c1ccc(-c2ccccc2)cc1)C(=O)O (stereo not given) | 100% | 100%
74 | O=C(COC(=O)C12CC3CC(CC(C3)C1)C2)NCc1ccco1 | 49.6% | 88.2%
75 | Cc1cccc(-n2cnc3cc(C(=O)N4CCCCC4)ccc32)c1 | 43.5% | 80%
76 | Cc1ccnc(NC(=O)CCCOc2cc(=O)n(C)c3ccccc23)c1 | 93.8% | 100%
77 | O=C(O)c1ccccc1OCc1ccccc1Br | 98.8% | 100%
78 | Cc1ccc(S(=O)(=O)NCc2ccc(C(=O)NCCN(Cc3ccccc3)C(C)C)cc2)cc1 | 84.8% | 100%
